Laboratory results reported in patent US9629885B1, “Method for treating candidiasis” (KING SAUD UNIVERSITY, priority 2016, dated 2017).
Values after ≈ are worked out from the molar mass of the structure shown.

Experiments:
Candida albicans [1] = assay: Anticandidal activity, well-diffusion method; format: cell-based; conditions: C. albicans, 50 μl per 6 mm well, 100 mg/ml, 37° C., 24-48 h
From the text: (§1) The fungal strain was isolated from a soil sample collected from Al-Qassim region, Kingdom of Saudi Arabia (KSA). The malt extract agar (MEA) medium (malt extract, 20 g; peptone, 1 g; dextrose, 20 g; agar, 20 g; distilled water, 1 L) was used for isolation, cultivation, identification and production of fungal secondary metabolites of the fungal isolate and test Candida species. Ten clinically isolated Candida species; namely, Candida albicans, C. dubliniensis, C. famata, C. glabrata, C. inconspicua, C. kefyr, C. krusei, C. norvegensis, C. parapsilosis, and C. tropicalis were used as test microorganisms. The fungal isolate and the test organism were identified at the Microbiology Laboratory, Regional Center for Mycology and Biotechnology, Al-Azhar University, Cairo, Egypt.
(§2) Anticandidal activities of total alcoholic extract of Petriella setifera and the isolated compound (amnomopin) were determined using well-diffusion method according to Zain et al. (2012). Petri plates containing 20 ml of malt extract agar medium were seeded with 48 h cultures of candidal inoculums (1-2×10^7 Colony Forming Units [CFU/ml]). Wells (6 mm in diameter) were cut off into agar and 50 μl of extract and the isolated compound were tested in a concentration of 100 mg/ml and incubated at 37° C. for 24-48h. The assessment of anticandidal activity was based on measurement of the diameter of the inhibition zone formed around the well.

C. tropicalis [2] = assay: Anticandidal activity, well-diffusion method; format: cell-based; conditions: 50 μl per 6 mm well, 100 mg/ml, 37° C., 24-48 h
From the text: as §1, §2

C. norvegensis [3] = assay: Anticandidal activity, well-diffusion method; format: cell-based; conditions: 50 μl per 6 mm well, 100 mg/ml, 37° C., 24-48 h
From the text: as §1, §2

C. inconspicua [4] = assay: Anticandidal activity, well-diffusion method; format: cell-based; conditions: 50 μl per 6 mm well, 100 mg/ml, 37° C., 24-48 h
From the text: as §1, §2

C. dubliniensis [5] = assay: Anticandidal activity, well-diffusion method; format: cell-based; conditions: 50 μl per 6 mm well, 100 mg/ml, 37° C., 24-48 h
From the text: as §1, §2

C. parapsilosis [6] = assay: Anticandidal activity, well-diffusion method; format: cell-based; conditions: 50 μl per 6 mm well, 100 mg/ml, 37° C., 24-48 h
From the text: as §1, §2

C. glabrata [7] = assay: Anticandidal activity, well-diffusion method; format: cell-based; conditions: 50 μl per 6 mm well, 100 mg/ml, 37° C., 24-48 h
From the text: as §1, §2

C. kefyr [8] = assay: Anticandidal activity, well-diffusion method; format: cell-based; conditions: 50 μl per 6 mm well, 100 mg/ml, 37° C., 24-48 h
From the text: as §1, §2

C. krusei [9] = assay: Anticandidal activity, well-diffusion method; format: cell-based; conditions: 50 μl per 6 mm well, 100 mg/ml, 37° C., 24-48 h
From the text: as §1, §2

C. famata [10] = assay: Anticandidal activity, well-diffusion method; format: cell-based; conditions: 50 μl per 6 mm well, 100 mg/ml, 37° C., 24-48 h
From the text: as §1, §2

Candida albicans [11] = assay: Minimum inhibitory concentration, micro-dilution method; format: cell-based; conditions: C. albicans, malt extract broth, 37° C., 24-48 h
From the text: as §1
(§3) The minimum inhibitory concentration (MIC) was determined for both total extract of Petriella setifera and the isolated compound by micro-dilution method using serially diluted (2 folds) according to Awaad et al. (2012). The MIC was determined by dilution of total extract and isolated compound of concentrations of 0.0-1000 μg/ml. Equal volume of each extract and malt extract broth were mixed in a test tube. Specifically, 0.1 ml of standardized inoculum (1-2×10^7 CFU/ml) was added in each tube. The tubes were incubated at 37° C. for 24-48 h. Two control tubes; tube containing the growth medium, saline and the inoculum, were maintained for each test batch. The lowest concentration (highest dilution) of the extract that produced no visible candidal growth (no turbidity) when compared with the control tubes were regarded as MIC.

C. tropicalis [12] = assay: as above; format: cell-based; conditions: malt extract broth, 37° C., 24-48 h
From the text: as §1, §3

C. norvegensis [13] = assay: as above; format: cell-based; conditions: malt extract broth, 37° C., 24-48 h
From the text: as §1, §3

C. inconspicua [14] = assay: as above; format: cell-based; conditions: malt extract broth, 37° C., 24-48 h
From the text: as §1, §3

C. dubliniensis [15] = assay: as above; format: cell-based; conditions: malt extract broth, 37° C., 24-48 h
From the text: as §1, §3

C. parapsilosis [16] = assay: as above; format: cell-based; conditions: malt extract broth, 37° C., 24-48 h
From the text: as §1, §3

C. glabrata [17] = assay: as above; format: cell-based; conditions: malt extract broth, 37° C., 24-48 h
From the text: as §1, §3

C. kefyr [18] = assay: as above; format: cell-based; conditions: malt extract broth, 37° C., 24-48 h
From the text: as §1, §3

C. krusei [19] = assay: as above; format: cell-based; conditions: malt extract broth, 37° C., 24-48 h
From the text: as §1, §3

C. famata [20] = assay: as above; format: cell-based; conditions: malt extract broth, 37° C., 24-48 h
From the text: as §1, §3

Male Wister rats = assay: Sub-chronic toxicity test, liver and kidney functions; format: in vivo
Method: Male Wister rats (weighing about 150-180 g) were divided into 3 equal groups each of 10 rats. Rats of the first group received the vehicle in a dose of 5 mL/kg and left as normal control. Rats of the second and third groups were administered the alcoholic extract of the investigated fungi (500 mg/kg) and the isolated compound (50 mg/kg). All medications were administered orally daily for 15 consecutive days. Animals were maintained under identical conditions with food and water ad libitum for the entire period with close observation. At the end of the experimental period, blood samples were collected from the orbital plexus of rats, 6 h after the last dose. Samples were left to clot at room temperature for 20 min. The obtained sera were collected and used to determine the activity of (AST) aspirate aminotransferase and (ALT) alanine aminotransferase, levels of urea and creatinine were also estimated (Awaad et al. 2014).
The effect of the total alcohol extract of Petriella setifera and isolated compound (Amnomopin) on liver and kidney functions are provided in Table 2. Three groups of animals (n=10) were orally administered the total alcohol extracts (500 mg/kg) and the isolated compound (50 mg/kg) daily for 15 days, while the control group received water orally. After the treatment period, blood samples were collected, sera were separated and different parameters were measured as provided in Table 2. All values were expressed as mean±S.D.

[21] = rat serum, oral daily for 15 days, mean±S.D., n=10

SMILES: C[C@@H]1[C@H](O)[C@@H](C)/C=C/C=C/C=C/C=C/C=C/C=C/C=C/[C@H](O[C@@H]2O[C@H](C)[C@@H](O)[C@H](N)[C@@H]2O)C[C@@H]2O[C@](O)(C[C@@H](O)C[C@@H](O)[C@H](O)CC[C@@H](O)C[C@@H](O)CC(=O)O[C@H]1C)C[C@H](O)[C@H]2C(=O)O [Amphotericin B, reference compound]
- Diameter of inhibition zone (Candida albicans [1]): 26.3 ± 1.20 mm
- Diameter of inhibition zone (C. tropicalis [2]): 19.6 ± 1.50 mm
- Diameter of inhibition zone (C. norvegensis [3]): 28.7 ± 0.72 mm
- Diameter of inhibition zone (C. inconspicua [4]): 21.9 ± 1.20 mm
- Diameter of inhibition zone (C. dubliniensis [5]): 24.1 ± 1.20 mm
- Diameter of inhibition zone (C. parapsilosis [6]): 32.4 ± 0.58 mm
- Diameter of inhibition zone (C. glabrata [7]): 19.3 ± 2.10 mm
- Diameter of inhibition zone (C. kefyr [8]): 26.3 ± 1.20 mm
- Diameter of inhibition zone (C. kefyr [8]; listed as amphotericin B): 26.3±1.20 mm
- Diameter of inhibition zone (C. krusei [9]): 23.7 ± 0.63 mm
- Diameter of inhibition zone (C. famata [10]): 20.4 ± 0.63 mm
- Minimum Inhibitory Concentration (MIC) (Candida albicans [11]): 00.49 µg/mL
- Minimum Inhibitory Concentration (MIC) (C. tropicalis [12]): 03.90 µg/mL
- Minimum Inhibitory Concentration (MIC) (C. norvegensis [13]): 00.49 µg/mL
- Minimum Inhibitory Concentration (MIC) (C. inconspicua [14]): 00.98 µg/mL
- Minimum Inhibitory Concentration (MIC) (C. dubliniensis [15]): 00.49 µg/mL
- Minimum Inhibitory Concentration (MIC) (C. parapsilosis [16]): 00.49 µg/mL
- Minimum Inhibitory Concentration (MIC) (C. glabrata [17]): 03.90 µg/mL
- Minimum Inhibitory Concentration (MIC) (C. kefyr [18]): 00.49 µg/mL
- Minimum Inhibitory Concentration (MIC) (C. krusei [19]): 00.98 µg/mL
- Minimum Inhibitory Concentration (MIC) (C. famata [20]): 03.90 µg/mL

SMILES: CC1(C)CCC2(C(=O)O)CCC3(C)C(CCC4C5(C)CCC(O[C@@H]6OC(CO)[C@@H](O)C(O)C6O[C@@H]6OC(CO)[C@@H](O)C(O)C6O)C(C)(C)C5=CCC43C)C2C1 (stereo partly drawn) [Amnomopin, 3β-diglucoside-5, 12-28-oic acid]
- Diameter of inhibition zone (Candida albicans [1]): 23.1 ± 2.10 mm
- zone of inhibition at 100000 µg/mL (Candida albicans [1]; Candida albicans, read-out: Diameter of inhibition zone): 23.1 ± 2.1 mm
- zone of inhibition at 100000 µg/mL (C. tropicalis [2]; Candida tropicalis, read-out: Diameter of inhibition zone): 19.4 ± 1.2 mm
- Diameter of inhibition zone (C. norvegensis [3]): 22.1 ± 1.20 mm
- zone of inhibition at 100000 µg/mL (C. norvegensis [3]; Pichia norvegensis, read-out: Diameter of inhibition zone): 22.1 ± 1.2 mm
- zone of inhibition at 100000 µg/mL (C. inconspicua [4]; Pichia inconspicua, read-out: Diameter of inhibition zone): 18.3 ± 2.1 mm
- zone of inhibition at 100000 µg/mL (C. dubliniensis [5]; Candida dubliniensis, read-out: Diameter of inhibition zone): 16.2 ± 0.63 mm
- zone of inhibition at 100000 µg/mL (C. parapsilosis [6]; Lodderomyces parapsilosis, read-out: Diameter of inhibition zone): 18.4 ± 0.72 mm
- zone of inhibition at 100000 µg/mL (C. glabrata [7]; Nakaseomyces glabratus, read-out: Diameter of inhibition zone): 16.3 ± 0.63 mm
- Diameter of inhibition zone (C. kefyr [8]): 24.2 ± 2.10 mm
- zone of inhibition at 100000 µg/mL (C. kefyr [8]; Kluyveromyces marxianus, read-out: Diameter of inhibition zone): 24.2 ± 2.1 mm
- zone of inhibition at 100000 µg/mL (C. krusei [9]; Pichia kudriavzevii, read-out: Diameter of inhibition zone): 20.9 ± 0.58 mm
- zone of inhibition at 100000 µg/mL (C. famata [10]; Debaryomyces hansenii, read-out: Diameter of inhibition zone): 20.1 ± 1.5 mm
- Minimum Inhibitory Concentration (MIC) (Candida albicans [11]): 01.95 µg/mL
- Minimum Inhibitory Concentration (MIC) (Candida albicans [11]; listed as amnomopin): 00.49 µg/mL
- MIC (C. tropicalis [12]; Candida tropicalis): 7.81 µg/mL (≈ 10 µM)
- MIC (C. norvegensis [13]; Pichia norvegensis): 0.98 µg/mL (≈ 1.25 µM)
- Minimum Inhibitory Concentration (MIC) (C. norvegensis [13]): 01.95 µg/mL
- MIC (C. inconspicua [14]; Pichia inconspicua): 32.2 µg/mL (≈ 41.3 µM)
- MIC (C. dubliniensis [15]; Candida dubliniensis): 62.5 µg/mL (≈ 80 µM)
- MIC (C. parapsilosis [16]; Lodderomyces parapsilosis): 32.2 µg/mL (≈ 41.3 µM)
- MIC (C. glabrata [17]; Nakaseomyces glabratus): 62.5 µg/mL (≈ 80 µM)
- MIC (C. kefyr [18]; Kluyveromyces marxianus): 0.49 µg/mL (≈ 0.627 µM)
- Minimum Inhibitory Concentration (MIC) (C. kefyr [18]): 00.98 µg/mL
- MIC (C. krusei [19]; Pichia kudriavzevii): 1.95 µg/mL (≈ 2.5 µM)
- MIC (C. famata [20]; Debaryomyces hansenii): 3.9 µg/mL (≈ 4.99 µM)
- Kidney function Blood urea (Male Wister rats; [21]): 30.85 ± 1.83 mg/dL
- Kidney function Serum Creatinine (Male Wister rats; [21]): 0.38 ± 0.02 mg/dL
- Liver function ALT (Male Wister rats; [21]): 146.30 ± 4.30 U/l
- Liver function AST (Male Wister rats; [21]): 66.72 ± 2.82 U/l
- effect on the activity of ALT, AST and the levels of blood urea and serum creatinine (Male Wister rats; rats, oral dosing for 15 days, extract 500 mg/kg, compound 50 mg/kg): did not show any significant effect
